Reference: ChEMBL document CHEMBL1201862, “PubChem BioAssay data set” (2004)
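96-well plates; 48 h exposure; 5 concentrations. Endpoints by linear interpolation between flanking doses. Not reached: highest tested concentration assigned. GI50: concentration for 50% inhibition of growth.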 Calls of active or inactive are those of the source. No stated cut-off is given here; in the data, active = GI50 up to about 1.1 µM and inactive = higher.

Legend:
Assay in all cases: DTP human tumour cell line panel, 48 h
[1] = test system: 786-0
[2] = test system: EKVX
[3] = test system: HCT-116
[4] = test system: HCT-15
[5] = test system: HOP-62
[6] = test system: Hs-578T
[7] = test system: K562
[8] = test system: MDA-N
[9] = test system: Malme-3M
[10] = test system: NCI-H226
[11] = test system: NCI-H522
[12] = test system: OVCAR-5
[13] = test system: OVCAR-8
[14] = test system: PC-3
[15] = test system: SF-268
[16] = test system: SN12C
[17] = test system: SNB-19
[18] = test system: TK-10
[19] = test system: UO-31
[20] = test system: DLD-1

## Nc1ncnc2c1ncn2C1OC(CO)C(O)C1N (configuration not stated)
[1]
  GI50: > 100 µM (inactive)
[2]
  GI50: > 100 µM (inactive)
[3]
  GI50: > 100 µM (inactive)
[4]
  GI50: > 100 µM
[5]
  GI50: > 100 µM (inactive)
[6]
  GI50: 0.08 µM (active)
[7]
  GI50: > 100 µM (inactive)
[8]
  GI50: > 100 µM (inactive)
[9]
  GI50: > 100 µM (inactive)
[10]
  GI50: > 100 µM (inactive)
[11]
  GI50: > 100 µM (inactive)
[12]
  GI50: > 100 µM (inactive)
[13]
  GI50: > 100 µM (inactive)
[14]
  GI50: > 100 µM (inactive)
[15]
  GI50: > 100 µM (inactive)
[16]
  GI50: > 100 µM (inactive)
[17]
  GI50: > 100 µM (inactive)
[18]
  GI50: > 100 µM (inactive)
[19]
  GI50: > 100 µM (inactive)

## O=C(O)Cc1cc(=O)[nH]c2c1/C(=N/O)CCC2
[1]
  GI50: > 100 µM (inactive)
[20]
  GI50: > 100 µM (inactive)
[2]
  GI50: > 100 µM (inactive)
[4]
  GI50: > 100 µM
[7]
  GI50: > 100 µM (inactive)
[9]
  GI50: > 100 µM (inactive)
[10]
  GI50: > 100 µM (inactive)
[11]
  GI50: > 100 µM (inactive)
[12]
  GI50: > 100 µM (inactive)
[13]
  GI50: > 100 µM (inactive)
[15]
  GI50: > 100 µM (inactive)
[16]
  GI50: > 100 µM (inactive)
[17]
  GI50: > 100 µM (inactive)
[18]
  GI50: > 100 µM (inactive)
[19]
  GI50: > 100 µM (inactive)

## CC(=O)c1ccccc1NS(=O)(=O)c1ccc2nc(C)n(NS(=O)(=O)c3ccccc3C(C)=O)c(=O)c2c1
[1]
  GI50: > 100 µM (inactive)
[2]
  GI50: > 100 µM (inactive)
[3]
  GI50: > 100 µM (inactive)
[4]
  GI50: > 100 µM
[5]
  GI50: > 100 µM (inactive)
[6]
  GI50: > 100 µM (inactive)
[7]
  GI50: > 100 µM (inactive)
[8]
  GI50: > 100 µM (inactive)
[9]
  GI50: > 100 µM (inactive)
[10]
  GI50: > 100 µM (inactive)
[11]
  GI50: > 100 µM (inactive)
[12]
  GI50: > 100 µM (inactive)
[13]
  GI50: > 100 µM (inactive)
[14]
  GI50: > 100 µM (inactive)
[15]
  GI50: > 100 µM (inactive)
[16]
  GI50: > 100 µM (inactive)
[17]
  GI50: > 100 µM (inactive)
[18]
  GI50: > 100 µM (inactive)
[19]
  GI50: 37.3 µM (inactive)

## CCCCCCCCCCNC(=S)OC
[1]
  GI50: 49.3 µM (inactive)
[20]
  GI50: 36.8 µM (inactive)
[2]
  GI50: 80 µM (inactive)
[3]
  GI50: 37.9 µM (inactive)
[4]
  GI50: 24.4 µM
[5]
  GI50: > 100 µM (inactive)
[7]
  GI50: 29.2 µM (inactive)
[9]
  GI50: 69.8 µM (inactive)
[11]
  GI50: 20.2 µM (inactive)
[13]
  GI50: 48.2 µM (inactive)
[15]
  GI50: 63 µM (inactive)
[16]
  GI50: 26.7 µM (inactive)
[17]
  GI50: 59.2 µM (inactive)
[18]
  GI50: 98.2 µM (inactive)
[19]
  GI50: 15.8 µM (inactive)

## CC[C@@]1(O)C(=O)OCc2c1cc1n(c2=O)Cc2c-1nc1ccccc1c2/C=N\NC(=O)C(N)CO (some centres not stated)
[1]
  GI50: 0.34 µM (active)
[2]
  GI50: 18.8 µM (inactive)
[3]
  GI50: 1.02 µM (active)
[4]
  GI50: 4.1 µM
[5]
  GI50: 0.201 µM (active)
[6]
  GI50: > 67.9 µM (inactive)
[7]
  GI50: 1.05 µM (active)
[8]
  GI50: 6.52 µM (inactive)
[9]
  GI50: 9.04 µM (inactive)
[10]
  GI50: 0.627 µM (active)
[11]
  GI50: 1.28 µM (inactive)
[12]
  GI50: 13.4 µM (inactive)
[13]
  GI50: 0.596 µM (active)
[14]
  GI50: 2.2 µM (inactive)
[15]
  GI50: 0.0643 µM (active)
[16]
  GI50: 0.182 µM (active)
[17]
  GI50: 0.202 µM (active)
[18]
  GI50: > 60.7 µM (inactive)
[19]
  GI50: 0.667 µM (active)

## CC1(C)OC2C(CO)OC(n3ccc(N)nc3=O)C2O1 (configuration not stated)
[1]
  GI50: > 100 µM (inactive)
[2]
  GI50: > 100 µM (inactive)
[3]
  GI50: > 100 µM (inactive)
[4]
  GI50: > 100 µM
[5]
  GI50: > 100 µM (inactive)
[6]
  GI50: > 100 µM (inactive)
[7]
  GI50: > 100 µM (inactive)
[8]
  GI50: > 100 µM (inactive)
[9]
  GI50: > 100 µM (inactive)
[10]
  GI50: > 100 µM (inactive)
[11]
  GI50: > 100 µM (inactive)
[12]
  GI50: > 100 µM (inactive)
[13]
  GI50: > 100 µM (inactive)
[14]
  GI50: > 100 µM (inactive)
[15]
  GI50: > 100 µM (inactive)
[16]
  GI50: > 100 µM (inactive)
[17]
  GI50: > 100 µM (inactive)
[18]
  GI50: > 100 µM (inactive)
[19]
  GI50: > 100 µM (inactive)

## O=C1C(=O)C(CCCO)(CCCO)CCCCCCCCC1(CCCO)CCCO
[1]
  GI50: > 100 µM (inactive)
[2]
  GI50: > 100 µM (inactive)
[3]
  GI50: 32 µM (inactive)
[4]
  GI50: > 100 µM
[5]
  GI50: > 100 µM (inactive)
[6]
  GI50: 57.7 µM (inactive)
[7]
  GI50: 23.7 µM (inactive)
[8]
  GI50: 86.9 µM (inactive)
[9]
  GI50: > 100 µM (inactive)
[10]
  GI50: > 100 µM (inactive)
[11]
  GI50: 48.4 µM (inactive)
[12]
  GI50: > 100 µM (inactive)
[13]
  GI50: > 100 µM (inactive)
[14]
  GI50: 55.3 µM (inactive)
[15]
  GI50: 38.1 µM (inactive)
[16]
  GI50: > 100 µM (inactive)
[17]
  GI50: 61.5 µM (inactive)
[18]
  GI50: 87.3 µM (inactive)
[19]
  GI50: 37.4 µM (inactive)

## Nc1nc(Cl)c(/C=N\O)c(NCC2(CO)CCC2)n1
[1]
  GI50: 41.7 µM (inactive)
[2]
  GI50: 17.3 µM (inactive)
[3]
  GI50: 13.7 µM (inactive)
[4]
  GI50: 60.8 µM
[5]
  GI50: 30.6 µM (inactive)
[6]
  GI50: 28.2 µM (inactive)
[7]
  GI50: 14 µM (inactive)
[8]
  GI50: 44.4 µM (inactive)
[9]
  GI50: 30.6 µM (inactive)
[10]
  GI50: 23.2 µM (inactive)
[11]
  GI50: 14.8 µM (inactive)
[12]
  GI50: 70.8 µM (inactive)
[13]
  GI50: 36.2 µM (inactive)
[14]
  GI50: 43 µM (inactive)
[15]
  GI50: > 100 µM (inactive)
[16]
  GI50: 68.4 µM (inactive)
[17]
  GI50: 53.2 µM (inactive)
[18]
  GI50: 21.8 µM (inactive)
[19]
  GI50: 19.9 µM (inactive)

## COc1ccc(OC)c(C(=O)c2cccc(C(=O)c3cc(OC)ccc3OC)n2)c1
[1]
  GI50: 68.9 µM (inactive)
[2]
  GI50: 41.1 µM (inactive)
[3]
  GI50: 43.9 µM (inactive)
[4]
  GI50: 33.1 µM
[5]
  GI50: 37.1 µM (inactive)
[6]
  GI50: 27 µM (inactive)
[7]
  GI50: 22.3 µM (inactive)
[8]
  GI50: 17 µM (inactive)
[9]
  GI50: 80 µM (inactive)
[10]
  GI50: 27.3 µM (inactive)
[11]
  GI50: 29.8 µM (inactive)
[12]
  GI50: 30.5 µM (inactive)
[13]
  GI50: 50.1 µM (inactive)
[14]
  GI50: 33.6 µM (inactive)
[15]
  GI50: 63.4 µM (inactive)
[16]
  GI50: 57.1 µM (inactive)
[17]
  GI50: 43.3 µM (inactive)
[18]
  GI50: 35.5 µM (inactive)
[19]
  GI50: 17.9 µM (inactive)

## CN(C)CCCCN1c2ccccc2Sc2ccc(C(=O)c3ccccc3)cc21
[1]
  GI50: 1.82 µM (inactive)
[2]
  GI50: 6.65 µM (inactive)
[3]
  GI50: 2.18 µM (inactive)
[4]
  GI50: 3.51 µM
[5]
  GI50: 3.13 µM (inactive)
[6]
  GI50: 2.22 µM (inactive)
[7]
  GI50: 1.57 µM (inactive)
[8]
  GI50: 2.65 µM (inactive)
[9]
  GI50: 1.72 µM (inactive)
[10]
  GI50: 5.96 µM (inactive)
[11]
  GI50: 2.91 µM (inactive)
[12]
  GI50: 5.64 µM (inactive)
[13]
  GI50: 3.33 µM (inactive)
[14]
  GI50: 2.32 µM (inactive)
[15]
  GI50: 5.6 µM (inactive)
[16]
  GI50: 3.11 µM (inactive)
[17]
  GI50: 4.06 µM (inactive)
[18]
  GI50: 3.8 µM (inactive)
[19]
  GI50: 2.6 µM (inactive)

## Clc1ccc(C[P+](c2ccccc2)(c2ccccc2)c2ccccc2)cc1Cl
[1]
  GI50: 4.85 µM (inactive)
[20]
  GI50: 9.2 µM (inactive)
[3]
  GI50: 1.93 µM (inactive)
[4]
  GI50: 17 µM
[5]
  GI50: 9.08 µM (inactive)
[7]
  GI50: 4.31 µM (inactive)
[9]
  GI50: 2.53 µM (inactive)
[10]
  GI50: 2.8 µM (inactive)
[11]
  GI50: 1.89 µM (inactive)
[12]
  GI50: 5.27 µM (inactive)
[13]
  GI50: 3.05 µM (inactive)
[15]
  GI50: 3.22 µM (inactive)
[16]
  GI50: 4.04 µM (inactive)
[17]
  GI50: 3.21 µM (inactive)
[18]
  GI50: 5.05 µM (inactive)

## CCCCC1(C2c3ccccc3Oc3ccccc32)C(=O)N(c2ccccc2)N(c2ccccc2)C1=O
[20]
  GI50: 25.8 µM (inactive)
[2]
  GI50: > 100 µM (inactive)
[3]
  GI50: 41.3 µM (inactive)
[4]
  GI50: 41.3 µM
[5]
  GI50: > 100 µM (inactive)
[7]
  GI50: 18.9 µM (inactive)
[9]
  GI50: > 100 µM (inactive)
[10]
  GI50: > 80.9 µM (inactive)
[11]
  GI50: 3.79 µM (inactive)
[12]
  GI50: > 100 µM (inactive)
[13]
  GI50: > 100 µM (inactive)
[15]
  GI50: > 79.1 µM (inactive)
[16]
  GI50: > 61.9 µM (inactive)
[17]
  GI50: 82 µM (inactive)
[19]
  GI50: > 83.2 µM (inactive)
